Data on 13 compounds can be found in patent US7872014B2, “Anaplastic lymphoma kinase modulators and methods of use” (Exelixis, Inc., priority 2003, dated 2011).

The structures appear in SMILES notation.

The target of the experiment is T1, ALK (baculovirus expressed human ALK kinase domain F1098-K1410) (Homo sapiens, UniProt Q9UM73).
T1 construct: baculovirus expressed human ALK kinase domain F1098-K1410; made in house
T1 sequence (Q9UM73 1098-1410): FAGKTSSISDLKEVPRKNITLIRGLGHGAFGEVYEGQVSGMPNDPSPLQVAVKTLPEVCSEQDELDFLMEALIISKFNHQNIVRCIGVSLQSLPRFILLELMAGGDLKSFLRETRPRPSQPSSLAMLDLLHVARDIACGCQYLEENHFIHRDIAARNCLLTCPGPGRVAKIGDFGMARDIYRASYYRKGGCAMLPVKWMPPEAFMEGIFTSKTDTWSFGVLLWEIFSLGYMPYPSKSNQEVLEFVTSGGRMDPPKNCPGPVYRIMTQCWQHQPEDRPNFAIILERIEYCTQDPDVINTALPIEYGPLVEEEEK
Description: Luciferase-Coupled Chemiluminescent Kinase assay (LCCA), ALK biochemical activity. The note with it: inhibition of ALK; mean values; 1 μM ATP, 4 μM poly-AEKY, 12 nM ALK, 2 hours ambient temperature. In outline:
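Luciferase-coupled readout of ATP remaining after reaction of 12 nM ALK kinase domain with 1 μM ATP and 4 μM poly-AEKY, Tris-HCl pH 7.5 buffer with MgCl2 and MnCl2. Incubated 2 h at ambient temperature; inhibition derived from ATP consumption across serial compound dilutions.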
By IC50 is commonly meant the concentration that inhibits the measured activity by half. As to `Cc1n[nH]c2nc(-c3ccc(O)c(Cl)c3)c3cc4c(cc3c12)OCCO4` [Example 140, 2-chloro-4-(1-methyl-8,9-dihydro-3H-[1,4]dioxino[2,3-g]pyrazolo[3,4-c]isoquinolin-5-yl)phenol], the IC50 was at most 99 nM.

For `Cc1n[nH]c2nc(-c3ccc(O)c(Cl)c3)c3cc4c(cc3c12)OCCCO4` [Example 141, 2-chloro-4-(1-methyl-9,10-dihydro-3H,8H-[1,4]dioxepino[2,3-g]pyrazolo[3,4-c]isoquinolin-5-yl)phenol], the IC50 is at most 99 nM.

On to `COc1cc2c(cc1OC(F)F)c(-c1ccc(O)c(Cl)c1)nc1[nH]nc(C)c12` [Example 142, 2-chloro-4-[7-[(difluoromethyl)oxy]-1-methyl-8-(methyloxy)-3H-pyrazolo[3,4-c]isoquinolin-5-yl]phenol], for which the IC50 was at most 99 nM.

In the case of `COCCOc1cc(F)c2c(-c3cc(Cl)c(O)cc3F)nc3[nH]nc(C)c3c2c1OC` [Example 143, 2-chloro-5-fluoro-4-(6-fluoro-1-methyl-9-(methyloxy)-8-{[2-(methyloxy)ethyl]oxy}-3H-pyrazolo[3,4-c]isoquinolin-5-yl)phenol], the IC50 was at most 99 nM.

The compound `COCCOc1cc(F)c2c(-c3cc(Cl)c(O)cc3F)nc3[nH]nc(C)c3c2c1F` [Example 144, 2-chloro-4-(6,9-difluoro-1-methyl-8-{[2-(methyloxy)ethyl]oxy}-3H-pyrazolo[3,4-c]isoquinolin-5-yl)-5-fluorophenol] showed an IC50 of at most 99 nM.

In the case of `Cc1n[nH]c2nc(-c3ccc(O)c(Cl)c3)c3ccc4c(c3c12)OCCO4` [Example 145, 2-chloro-4-(11-methyl-2,3-dihydro-9H-[1,4]dioxino[2,3-f]pyrazolo[3,4-c]isoquinolin-7-yl)phenol], the IC50 was at most 99 nM.

For `Cc1n[nH]c2nc(-c3cc(Cl)c(O)cc3F)c3ccc4c(c3c12)OCCO4` [Example 146, 2-chloro-5-fluoro-4-(11-methyl-2,3-dihydro-9H-[1,4]dioxino[2,3-f]pyrazolo[3,4-c]isoquinolin-7-yl)phenol], the IC50 is at most 99 nM.

Consider `COc1cc2c(c(-c3ccc(O)c(Cl)c3)nc3[nH]nc(C)c32)c(OC)c1OC` [Example 147, 2-chloro-4-[1-methyl-6,7,8-tris(methyloxy)-3H-pyrazolo[3,4-c]isoquinolin-5-yl]phenol], for which the IC50 was at most 99 nM.

In the case of `COCCOc1cc(F)c2c(-c3cc(Br)c(O)cc3F)nc3[nH]nc(C)c3c2c1F` [Example 148, 2-bromo-4-(6,9-difluoro-1-methyl-8-{[2-(methyloxy)ethyl]oxy}-3H-pyrazolo[3,4-c]isoquinolin-5-yl)-5-fluorophenol], the IC50 is at most 99 nM.

For the compound `Cc1n[nH]c2nc(-c3cccc(Cl)c3)c3ccc4c(c3c12)OCCO4` [Example 149, 7-(3-chlorophenyl)-11-methyl-2,3-dihydro-9H-[1,4]dioxino[2,3-f]pyrazolo[3,4-c]isoquinoline], the IC50 is over 2000 nM.

`Cc1n[nH]c2nc(-c3cc(Cl)c(O)cc3F)c3c(F)c4c(cc3c12)OCCO4` [Example 150, 2-chloro-5-fluoro-4-(6-fluoro-1-methyl-8,9-dihydro-3H-[1,4]dioxino[2,3-g]pyrazolo[3,4-c]isoquinolin-5-yl)phenol] displayed an IC50 of at most 99 nM.

The compound `COc1cc2c(-c3ccc(O)c(Cl)c3)nc3[nH]nc(C)c3c2cc1OCC1CCCO1` (stereo not shown) [Example 151, 2-chloro-4-{1-methyl-7-(methyloxy)-8-[(tetrahydrofuran-2-ylmethyl)oxy]-3H-pyrazolo[3,4-c]isoquinolin-5-yl}phenol] yielded an IC50 of at most 99 nM.

The compound `COc1cc2c(-c3ccc(O)c(Cl)c3)nc3[nH]nc(C)c3c2cc1OCC1CCCCO1` (stereo not shown) [Example 152, 2-chloro-4-{1-methyl-7-(methyloxy)-8-[(tetrahydro-2H-pyran-2-ylmethyl)oxy]-3H-pyrazolo[3,4-c]isoquinolin-5-yl}phenol] had an IC50 of at most 99 nM.
